Assay results published in patent US20050148627A1, “Benzopyran compounds for use in the treatment and prevention of inflammation related conditions” (priority 2003, published 2005).
Values joined by “and” are separate entries in the source; they are usually repeats but may differ in a detail not shown here. Identical values can stand only once.

Molecular target: COX-1 (Homo sapiens, UniProt P23219)
Test: biochemical

Sequence of COX-1 (P23219 24-599): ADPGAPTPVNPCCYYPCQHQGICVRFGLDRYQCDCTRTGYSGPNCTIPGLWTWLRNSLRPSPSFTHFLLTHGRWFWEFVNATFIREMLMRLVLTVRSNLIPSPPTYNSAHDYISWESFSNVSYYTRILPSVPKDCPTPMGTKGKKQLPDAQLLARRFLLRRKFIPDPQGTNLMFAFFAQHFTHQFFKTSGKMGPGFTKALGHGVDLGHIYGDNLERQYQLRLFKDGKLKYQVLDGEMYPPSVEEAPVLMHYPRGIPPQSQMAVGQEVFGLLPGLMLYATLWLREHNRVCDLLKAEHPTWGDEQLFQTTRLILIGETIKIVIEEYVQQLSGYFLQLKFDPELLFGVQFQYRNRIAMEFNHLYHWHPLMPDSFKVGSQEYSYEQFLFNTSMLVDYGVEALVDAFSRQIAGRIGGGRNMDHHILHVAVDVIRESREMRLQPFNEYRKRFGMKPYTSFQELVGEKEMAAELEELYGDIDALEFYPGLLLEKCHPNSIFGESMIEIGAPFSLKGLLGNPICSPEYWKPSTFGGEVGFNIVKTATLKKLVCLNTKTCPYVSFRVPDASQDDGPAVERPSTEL

Structure (SMILES) | IC50
C=C(c1ccccc1)c1ccc2c(c1)OC(C(F)(F)F)C(C(=O)O)=C2 (centres unmarked) [Example 37a, 7-(1-phenylvinyl)-2-(trifluoromethyl)-2H-chromene-3-carboxylic acid] | 69.4 µM
CCOc1ccc(Br)c2c1OC(C(F)(F)F)C(C(=O)O)=C2 (centres unmarked) [Example 24b, 5-bromo-8-ethoxy-2-(trifluoromethyl)-2H-chromene-3-carboxylic acid] | > 500 µM
CCCOc1ccc(Cl)c2c1OC(C(F)(F)F)C(C(=O)O)=C2 (centres unmarked) [Example 23a, 5-chloro-8-propoxy-2-(trifluoromethyl)-2H-chromene-3-carboxylic acid] | > 500 µM
COCC(C)(C)c1cc2c(cc1Cl)C=C(C(=O)O)C(C(F)(F)F)O2 (centres unmarked) [Example 116, 6-chloro-7-(2-methoxy-1,1-dimethylethyl)-2-(trifluoromethyl)-2H-chromene-3-carboxylic acid] | > 100 µM
CCC(CC)COc1ccc2c(c1C)OC(C(F)(F)F)C(C(=O)O)=C2 (centres unmarked) [Example 5d, 7-(2-ethylbutoxy)-8-methyl-2-(trifluoromethyl)-2H-chromene-3-carboxylic acid] | 31.9 µM and 17.2 µM
Cc1ccc(Cc2cc3c(cc2Cl)C=C(C(=O)O)C(C(F)(F)F)O3)cc1 (centres unmarked) [Example 9x, 6-chloro-7-(4-methylbenzyl)-2-(trifluoromethyl)-2H-chromene-3-carboxylic acid] | 5.59 µM and 10.3 µM
CC(C)(C#N)c1cc2c(cc1Cl)C=C(C(=O)O)C(C(F)(F)F)O2 (centres unmarked) [Example 118, 6-chloro-7-(1-cyano-1-methylethyl)-2-(trifluoromethyl)-2H-chromene-3-carboxylic acid] | > 100 µM
O=C(O)C1=Cc2cc(Cl)c(CCc3ccc(Cl)cc3)cc2OC1C(F)(F)F (centres unmarked) [Example 9j, 6-chloro-7-[2-(4-chlorophenyl)ethyl]-2-(trifluoromethyl)-2H-chromene-3-carboxylic acid] | 11.4 µM and 14 µM
CC(C)(C=O)c1ccc2c(c1)OC(C(F)(F)F)C(C(=O)O)=C2 (centres unmarked) [Example 114, 7-(1,1-dimethyl-2-oxoethyl)-2-(trifluoromethyl)-2H-chromene-3-carboxylic acid] | 63.9 µM
COc1c(Cl)cc2c(c1OC)OC(C(F)(F)F)C(C(=O)O)=C2 (centres unmarked) [Example 4b, 6-chloro-7,8-dimethoxy-2-(trifluoromethyl)-2H-chromene-3-carboxylic acid] | > 500 µM
CC(C)(C)Oc1c(Cl)cc2c(c1Cl)OC(C(F)(F)F)C(C(=O)O)=C2 (centres unmarked) [Example 1h, 7-tert-butoxy-6,8-dichloro-2-(trifluoromethyl)-2H-chromene-3-carboxylic acid] | < 0.137 µM
Cc1c(Cc2ccccc2)ccc2c1OC(C(F)(F)F)C(C(=O)O)=C2 (centres unmarked) [Example 14b, 7-benzyl-8-methyl-2-(trifluoromethyl)-2H-chromene-3-carboxylic acid] | < 0.137 µM
O=C(O)C1=Cc2cc(Cl)c(Cc3ccccc3)cc2O[C@H]1C(F)(F)F (single isomer, unassigned) [Example 9l] | 3.05 µM and 2.38 µM
O=C(O)C1=Cc2cc(OC(F)(F)F)cc(CCc3ccccc3)c2OC1C(F)(F)F (centres unmarked) [Example 21o, 8-(2-phenylethyl)-6-(trifluoromethoxy)-2-(trifluoromethyl)-2H-chromene-3-carboxylic acid] | 54.8 µM and 68.2 µM
O=C(O)C1=Cc2cc(Cl)c(OCC3CCCC3)c(Cl)c2OC1C(F)(F)F (centres unmarked) [Example 1c, 6,8-dichloro-7-(cyclopentylmethoxy)-2-(trifluoromethyl)-2H-chromene-3-carboxylic acid] | 0.543 µM and 0.143 µM
COc1ccc(Cc2cc3c(cc2Cl)C=C(C(=O)O)C(C(F)(F)F)O3)cc1 (centres unmarked) [Example 9q, 6-chloro-7-(4-methoxybenzyl)-2-(trifluoromethyl)-2H-chromene-3-carboxylic acid] | 99.9 µM

Structure (SMILES) | IC50
O=C(O)C1=Cc2cccc(OCc3ccoc3)c2OC1C(F)(F)F (centres unmarked) [Example 25h, 8-(3-furylmethoxy)-2-(trifluoromethyl)-2H-chromene-3-carboxylic acid] | > 100 µM and 72.3 µM
COc1ccc2c(c1OC)OC(C(F)(F)F)C(C(=O)O)=C2 (centres unmarked) [Example 4a, 7,8-dimethoxy-2-(trifluoromethyl)-2H-chromene-3-carboxylic acid] | > 500 µM
O=C(O)C1=Cc2ccc(OCc3ccco3)cc2OC1C(F)(F)F (centres unmarked) [Example 5f, 7-(2-furylmethoxy)-2-(trifluoromethyl)-2H-chromene-3-carboxylic acid] | > 100 µM
O=C(O)C1=Cc2cc(Cl)c(Cc3ccc(Cl)cc3)cc2OC1C(F)(F)F (centres unmarked) [Example 9o, 6-chloro-7-(4-chlorobenzyl)-2-(trifluoromethyl)-2H-chromene-3-carboxylic] | 9.67 µM and 12.1 µM
CCCCN(CC)c1cc2c(cc1Cl)C=C(C(=O)O)C(C(F)(F)F)O2 (centres unmarked) [Example 8h, 7-[butyl(ethyl)amino]-6-chloro-2-(trifluoromethyl)-2H-chromene-3-carboxylic acid] | > 100 µM
O=C(O)C1=Cc2cc(Cl)c(Cc3ccccc3)cc2OC1C(F)(F)F (centres unmarked) [Example 9k, 7-benzyl-6-chloro-2-(trifluoromethyl)-2H-chromene-3-carboxylic acid] | 0.603 µM and 2.17 µM
COc1cc2c(cc1Cl)C=C(C(=O)O)C(C(F)(F)F)O2 (centres unmarked) [Example 2i, 6-chloro-7-methoxy-2-(trifluoromethyl)-2H-chromene-3-carboxylic acid] | > 100 µM and 187 µM
COCCOc1cc2c(cc1Cl)C=C(C(=O)O)C(C(F)(F)F)O2 (centres unmarked) [Example 2h, 6-chloro-7-(2-methoxyethoxy)-2-(trifluoromethyl)-2H-chromene-3-carboxylic acid] | > 100 µM
CC(C)(C)CCOc1cc2c(cc1Cl)C=C(C(=O)O)C(C(F)(F)F)O2 (centres unmarked) [Example 2e, 6-chloro-7-(3,3-dimethylbutoxy)-2-(trifluoromethyl)-2H-chromene-3-carboxylic acid] | 68.8 µM
COc1c(Cl)cc2c(c1C)OC(C(F)(F)F)C(C(=O)O)=C2 (centres unmarked) [Example 3a, 6-chloro-7-methoxy-8-methyl-2-(trifluoromethyl)-2H-chromene-3-carboxylic acid] | > 100 µM
O=C(O)C1=Cc2cc(Cl)c(Cc3ccc(F)c(F)c3)cc2OC1C(F)(F)F (centres unmarked) [Example 9z, 6-chloro-7-(3,4-difluorobenzyl)-2-(trifluoromethyl)-2H-chromene-3-carboxylic acid] | 27.4 µM
CCCC(C)(C)c1ccc2c(c1)OC(C(F)(F)F)C(C(=O)O)=C2 (centres unmarked) [Example 108, 7-(1,1-dimethylbutyl)-2-(trifluoromethyl)-2H-chromene-3-carboxylic acid] | > 100 µM and 169 µM
Cc1cc(C)c2c(c1Cl)C=C(C(=O)O)C(C(F)(F)F)O2 (centres unmarked) [Example 33, 5-chloro-6,8-dimethyl-2-(trifluoromethyl)-2H-chromene-3-carboxylic acid] | 8.28 µM and 6.09 µM and 43.4 µM and 18.5 µM
CCCSc1cc2c(cc1Cl)C=C(C(=O)O)C(C(F)(F)F)O2 (centres unmarked) [Example 7c, 6-chloro-7-(propylthio)-2-(trifluoromethyl)-2H-chromene-3-carboxylic acid] | > 100 µM
COc1cc2c(cc1C(C)(C)C)OC(C(F)(F)F)C(C(=O)O)=C2 (centres unmarked) [Example 112, 7-tert-butyl-6-methoxy-2-(trifluoromethyl)-2H-chromene-3-carboxylic acid] | > 100 µM
O=C(O)C1=Cc2cc(Cl)c(OCc3ccccc3)cc2OC1C(F)(F)F (centres unmarked) [Example 2f, 7-(benzyloxy)-6-chloro-2-(trifluoromethyl)-2H-chromene-3-carboxylic acid] | > 100 µM
